# Like-named read-outs stand apart in the source and are kept apart here.
# Assays:
# [1] = Hydrogen peroxide scavenging assay; conditions: for H2O2 free radical scavenging ability: mean ± S.E.M, n = 3
# Protocol: In addition to DPPH the ligand acids and their complexes were also evaluated for their peroxide scavenging ability test. Hydrogen peroxide (H2O2) is a biologically important, non-radical reactive oxygen species (ROS) that can influence several cellular processes. It is a weak oxidizing agent and can inactivate a few enzymes directly, usually via oxidation of essential thiol (-SH) groups. It can cross cell membranes rapidly, and inside the cell, H2O2 probably reacts with Fe^2+ (and possibly Cu^2+) ions to form the hydroxyl radical, which may be the origin of many of its toxic effects. It is, therefore, biologically advantageous for cells to control the amount of hydrogen peroxide that is allowed to accumulate.
# The ligand acids and their Cu(II) carboxylates were further subjected to H2O2 scavenging ability test potential by following the procedure as per cited literature. A 2 mM solution of H2O2 was made in 50 mM phosphate buffer having a pH 7.4. In the next step, 0.1 mL of the screened compounds was added to the 0.3 mL (50 mM) of phosphate buffer, then 0.6 mL of H2O2 was added and the solution was vortexed. After following the incubation period of 10 min, the absorption was 230 nm in comparison to the blank.
# [2] = DPPH scavenging assay; conditions: for DPPH Free Radical Scavenging Ability: mean ± S.E.M, n = 3
# Text: The antioxidant potential of the free acids and their Cu(II) carboxylates was explored via the DPPH method using ascorbic acid as a reference. The DPPH, with a single unpaired electron, is capable of accepting a hydrogen or electron and gives a strong absorption at 517 nm. The absorption generally decreases when it accepts a hydrogen or electron from an antioxidant, forming a stable molecule. The results given in Table 5 indicate that the compounds under study show a moderate level of antioxidant potential. This activity may be attributed to the various structural and electronic factors like coordination geometry, redox properties, chelate ring size, degree of unsaturation, etc.. The transfer of proton or electron from an antioxidant to DPPH results in the formation of species that undergo other reactions like coupling, fragmentation, and addition, which affect the rate and stoichiometry of the reaction.
# The compounds under study were subjected to DPPH scavenging ability test as per cited literature. A 0.004% solution of reagent DPPH was added to the different concentrations of tested compounds (i.e., 125, 250, 500 and 1000 μg/mL) and the reaction mixture was incubated subsequently for about thirty minutes in dark. Ascorbic acid was used as positive control. The UV-3000 O.R.I. Germany was used to record the change in absorption of the reaction mixture at 517 nm and the percentage scavenging ability of the compounds under study was determined using formula: % scavenging activity =Absorbance of control−Absorbance of compounds /Absorbance of control×100
# The experiments were repeated thrice. The GraphPad Prism® (version 4.0, Sandiego, CA, USA) was used to calculate the IC50 values.
# [3] = target: butyrylcholinesterase (BChE) (Equus caballus, UniProt P81908); assay: biochemical; conditions: for inhibition at 62.5 µg/mL / inhibition at 125 µg/mL / inhibition at 250 µg/mL / inhibition at 500 µg/mL / inhibition at 1000 µg/mL: read-out: inhibition of butyrylcholinesterase (% BChE activity)
# Protocol: (§1) The enzymes acetylcholinesterase (AChE) and butyrylcholinesterase (BChE) play an important role in the transfer of signals and physiological function. They assist acetylcholine to hydrolyze and produce choline and acetyl group in synaptic region. So, they are considered as targets in the management of Alzheimer’s disease. Herein, the compounds under study were evaluated for their potential to inhibit acetylthiocholine iodide (AChI) and butyrylthiocholine iodide (BChI) enzymes.
# (§2) The well-known Ellman’s assay was implemented to evaluate the inhibitory potential using acetylthiocholine iodide (AChI) and butyrylthiocholine iodide (BChI) as substrates, respectively. The basic principle of the assay is the hydrolysis of acetylthiocholine iodide and butyrylthiocholine iodide by their corresponding enzymes, resulting in the formation of 5-thio-2-nitrobenzoate anion.
# (§3) To carry out the assay, 0.1 M buffer solution with pH 8 was prepared as per the cited literature where the pH was adjusted using KOH (potassium hydroxide). Using the freshly prepared buffer and following the dilution, final concentrations of 0.03 U/mL for AChE (518 U/mg solid) and 0.01 U/mL for BChE (7–16 U/mg) were obtained. […] After that, the final solution of each of the AChE and BChE was prepared in distilled water in the presence of […] DTNB and were stored at 8 °C. The experiment was performed by taking 205 µL of inhibitor (tested compound) along with 5 µL of prepared solutions of enzymes, followed by the addition of 5 μL DTNB reagent. They were then incubated for about 15 min in a water bath at a temperature of 30 °C. Later on, 5 µL substrate solution was added to them which were subjected to absorption check at 412 nm. […] The temperature of the spectrophotometer was adjusted at 30 °C and then, following the reaction time of 4 min, the absorbance values were noted after regular intervals. The experiment was repeated, and change in absorption with time was used to calculate the percentage activity of enzyme and enzyme inhibitor [59]. The p values, or calculated probability levels, are categorized as: 5% (p < 0.05), 1% (p < 0.01) and 0.1% (p < 0.001). p < 0.05 means statistically significant and p < 0.001 means highly statistically significant.
# [4] = DPPH scavenging assay; conditions: Comp. Conc. 62.5 µg/mL; mean ± S.E.M, n = 3
# [5] = target: acetylcholinesterase (AChE) (Electrophorus electricus, UniProt O42275); assay: biochemical; type: biochemical; conditions: for inhibition at 62.5 µg/mL / inhibition at 125 µg/mL / inhibition at 250 µg/mL / inhibition at 500 µg/mL / inhibition at 1000 µg/mL: read-out: Inhibition of Acetylcholinesterase (%AChE Activity)
# Protocol: The synthesized compounds were evaluated for acetylcholinesterase (ACh) and butyrylcholinesterase (BCh) enzyme inhibitory activities.
# as §1, §2, §3
# Chain of butyrylcholinesterase (BChE) (P81908 whole entry): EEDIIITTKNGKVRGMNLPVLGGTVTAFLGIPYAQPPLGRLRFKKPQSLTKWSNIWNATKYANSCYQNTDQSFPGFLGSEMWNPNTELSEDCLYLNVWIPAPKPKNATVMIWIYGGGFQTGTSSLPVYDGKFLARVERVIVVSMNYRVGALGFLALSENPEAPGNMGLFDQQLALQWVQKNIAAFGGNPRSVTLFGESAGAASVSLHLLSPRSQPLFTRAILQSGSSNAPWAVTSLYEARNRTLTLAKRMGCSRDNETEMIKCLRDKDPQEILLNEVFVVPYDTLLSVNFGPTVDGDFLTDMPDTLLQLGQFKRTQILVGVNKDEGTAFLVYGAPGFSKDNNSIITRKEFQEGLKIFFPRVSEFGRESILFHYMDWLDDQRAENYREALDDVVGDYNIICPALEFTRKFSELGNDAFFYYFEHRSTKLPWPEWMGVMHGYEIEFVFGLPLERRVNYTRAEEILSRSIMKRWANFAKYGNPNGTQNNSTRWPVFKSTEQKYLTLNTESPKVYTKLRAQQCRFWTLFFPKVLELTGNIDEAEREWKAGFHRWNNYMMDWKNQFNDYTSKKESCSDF
# Chain of acetylcholinesterase (AChE) (O42275 24-633): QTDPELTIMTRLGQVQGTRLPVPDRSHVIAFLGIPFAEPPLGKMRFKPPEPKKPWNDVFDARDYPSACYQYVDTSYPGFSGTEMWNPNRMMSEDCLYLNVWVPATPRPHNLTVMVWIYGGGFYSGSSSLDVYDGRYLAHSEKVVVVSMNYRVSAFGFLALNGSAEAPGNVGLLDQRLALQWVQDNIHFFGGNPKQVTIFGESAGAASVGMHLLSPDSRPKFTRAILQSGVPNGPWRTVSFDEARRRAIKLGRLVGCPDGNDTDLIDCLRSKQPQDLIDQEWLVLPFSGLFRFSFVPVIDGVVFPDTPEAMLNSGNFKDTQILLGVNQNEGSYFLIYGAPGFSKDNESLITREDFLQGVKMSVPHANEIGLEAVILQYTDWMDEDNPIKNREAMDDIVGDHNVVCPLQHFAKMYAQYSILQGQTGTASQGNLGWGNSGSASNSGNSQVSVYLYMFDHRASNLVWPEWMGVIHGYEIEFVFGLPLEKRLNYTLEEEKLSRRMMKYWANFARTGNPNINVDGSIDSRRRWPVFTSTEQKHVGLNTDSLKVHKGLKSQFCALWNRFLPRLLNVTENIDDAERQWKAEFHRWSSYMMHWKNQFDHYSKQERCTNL
Compound,H2O2 free radical scavenging ability ([1]; Comp. Conc. 62.5 µg/mL),H2O2 free radical scavenging ability ([1]; Comp. Conc. 125 µg/mL),H2O2 free radical scavenging ability ([1]; Comp. Conc. 250 µg/mL),H2O2 free radical scavenging ability ([1]; Comp. Conc. 500 µg/mL),H2O2 free radical scavenging ability ([1]; Comp. Conc. 1000 µg/mL),"IC50, DPPH Free Radical Scavenging Ability [2]",DPPH Free Radical Scavenging Ability ([2]; Comp. Conc. 125 µg/mL),DPPH Free Radical Scavenging Ability ([2]; Comp. Conc. 250 µg/mL),DPPH Free Radical Scavenging Ability ([2]; Comp. Conc. 500 µg/mL),DPPH Free Radical Scavenging Ability ([2]; Comp. Conc. 1000 µg/mL),"IC50, inhibition of butyrylcholinesterase [3]","inhibition of butyrylcholinesterase (% BChE activity) ([3]; Comp. Conc. 62.5 µg/mL, n = 3)","inhibition of butyrylcholinesterase (% BChE activity) ([3]; Comp. Conc. 125 µg/mL, n = 3)","inhibition of butyrylcholinesterase (% BChE activity) ([3]; Comp. Conc. 250 µg/mL, n = 3)","inhibition of butyrylcholinesterase (% BChE activity) ([3]; Comp. Conc. 500 µg/mL, n = 3)","inhibition of butyrylcholinesterase (% BChE activity) ([3]; Comp. Conc. 1000 µg/mL, n = 3)",DPPH Free Radical Scavenging Ability [4],"IC50, Inhibition of Acetylcholinesterase [5]","Inhibition of Acetylcholinesterase (%AChE Activity) ([5]; Comp. Conc. 62.5 µg/mL, n = 3)","Inhibition of Acetylcholinesterase (%AChE Activity) ([5]; Comp. Conc. 125 µg/mL, n = 3)",other results
"N#Cc1cccnc1.N#Cc1cccnc1.O=C([O-])Cc1ccccc1Cl.O=C([O-])Cc1ccccc1Cl.O=C([O-])Cc1ccccc1Cl.O=C([O-])Cc1ccccc1Cl.[Cu+2].[Cu+2] [Complex 1, Cu2(2-ClC6H4COO)4(3-CNPy)2]",53.50 ± 0.73 %,62.42 ± 0.57 %,70.32 ± 0.52 %,74.27 ± 0.57 %,80.30 ± 0.64 %,17.69 µg/mL,61.40 ± 0.51 %,67.44 ± 0.55 %,73.47 ± 0.52 %,78.39 ± 0.49 %,12 µg/mL,64.53 ± 0.71 %,68.51 ± 0.77 %,71.75 ± 0.58 %,76.45 ± 0.49 %,81.79 ± 0.62 %,55.57 ± 0.84 %,39 µg/mL,55.67 ± 0.61 %,62.69 ± 0.77 %,"Inhibition of Acetylcholinesterase (%AChE Activity) ([5]; Comp. Conc. 250 µg/mL, n = 3): 67.83 ± 0.56 %; Inhibition of Acetylcholinesterase (%AChE Activity) ([5]; Comp. Conc. 500 µg/mL, n = 3): 72.60 ± 0.80 %; Inhibition of Acetylcholinesterase (%AChE Activity) ([5]; Comp. Conc. 1000 µg/mL, n = 3): 77.61 ± 0.77 %"
"N#Cc1ccncc1.N#Cc1ccncc1.O=C([O-])Cc1ccccc1Cl.O=C([O-])Cc1ccccc1Cl.O=C([O-])Cc1ccccc1Cl.O=C([O-])Cc1ccccc1Cl.[Cu+2].[Cu+2] [Complex 2, Cu2(2-ClC6H4COO)4(4-CNPy)2]",74.17 ± 0.72 %,79.60 ± 0.90 ^⸸ %,85.50 ± 0.40 %,89.37 ± 1.65 %,93.55 ± 0.40 %,3.22 µg/mL,81.20 ± 0.65 ^⸙ %,86.98 ± 0.85 %,91.17 ± 0.53 %,95.20 ± 0.15 %,04 µg/mL,66.29 ± 0.43 %,67.23 ± 0.44 %,72.83 ± 1.07 %,76.87 ± 0.39 %,81.44 ± 0.09 %,77.80 ± 0.37 ^⸙ %,2 µg/mL,71.73 ± 0.66 %,73.70 ± 0.35 ^⸙ %,"IC50, H2O2 free radical scavenging ability [1]: 4.50 µg/mL; Inhibition of Acetylcholinesterase (%AChE Activity) ([5]; Comp. Conc. 250 µg/mL, n = 3): 78.07 ± 0.62 ^⸸ %; Inhibition of Acetylcholinesterase (%AChE Activity) ([5]; Comp. Conc. 500 µg/mL, n = 3): 83.01 ± 0.42 ^⸸ %; Inhibition of Acetylcholinesterase (%AChE Activity) ([5]; Comp. Conc. 1000 µg/mL, n = 3): 87.50 ± 2.26 ^⸙ %"
"O=C([O-])Cc1ccccc1Cl.O=C([O-])Cc1ccccc1Cl.O=C([O-])Cc1ccccc1Cl.O=C([O-])Cc1ccccc1Cl.Oc1ccncc1.Oc1ccncc1.[Cu+2].[Cu+2] [Complex 3, Cun(2-ClC6H4COO)4(4-OHPy)2]",61.30 ± 0.52 %,66.37 ± 0.58 %,72.29 ± 0.43 %,78.58 ± 0.56 %,84.39 ± 0.60 %,21.72 µg/mL,62.50 ± 0.44 %,66.33 ± 0.33 %,74.66 ± 1.20 %,79.00 ± 0.16 %,25 µg/mL,60.2 ± 0.98 %,63.3 ± 1.10 %,68.2 ± 0.88 %,73.2 ± 0.98 %,76.8 ± 1.20 %,53.00 ± 0.57 %,17 µg/mL,62.98 ± 0.72 %,67.90 ± 0.96 %,"IC50, H2O2 free radical scavenging ability [1]: 11.47 µg/mL; Inhibition of Acetylcholinesterase (%AChE Activity) ([5]; Comp. Conc. 250 µg/mL, n = 3): 72.91 ± 0.88 %; Inhibition of Acetylcholinesterase (%AChE Activity) ([5]; Comp. Conc. 500 µg/mL, n = 3): 77.08 ± 0.47 %; Inhibition of Acetylcholinesterase (%AChE Activity) ([5]; Comp. Conc. 1000 µg/mL, n = 3): 81.03 ± 0.35 %"
"O=C(O)Cc1ccccc1Cl [L^1, 2-chlorophenyl acetic acid]",,,,,,,,,,,,,,,,,,,,,"inhibition at 62.5 µg/mL ([3]; Comp. Conc. 62.5 µg/mL, n = 3): 58.15 ± 0.22%; inhibition at 125 µg/mL ([3]; Comp. Conc. 125 µg/mL, n = 3): 63.4 ± 0.71%; inhibition at 250 µg/mL ([3]; Comp. Conc. 250 µg/mL, n = 3): 68.39 ± 0.35%; inhibition at 500 µg/mL ([3]; Comp. Conc. 500 µg/mL, n = 3): 73.42 ± 0.12%; inhibition at 1000 µg/mL ([3]; Comp. Conc. 1000 µg/mL, n = 3): 77.73 ± 0.03%; IC50 ([3]; read-out: IC50, inhibition of butyrylcholinesterase (converted)): 258 µM; inhibition at 62.5 µg/mL ([5]; Comp. Conc. 62.5 µg/mL, n = 3): 50.35 ± 0.11%; inhibition at 125 µg/mL ([5]; Comp. Conc. 125 µg/mL, n = 3): 54.02 ± 0.24%; inhibition at 250 µg/mL ([5]; Comp. Conc. 250 µg/mL, n = 3): 57.34 ± 0.35%; inhibition at 500 µg/mL ([5]; Comp. Conc. 500 µg/mL, n = 3): 62.29 ± 0.32%; inhibition at 1000 µg/mL ([5]; Comp. Conc. 1000 µg/mL, n = 3): 65.39 ± 0.4%"
"O=C(O)Cc1cccc(Cl)c1 [L^2, 3-chlorophenyl acetic acid]",,,,,,,,,,,,,,,,,,,,,IC50 [3]: 234 µM; inhibition at 62.5 µg/mL [3]: 58.15 ± 0.22%; inhibition at 125 µg/mL [3]: 63.4 ± 0.71%; inhibition at 250 µg/mL [3]: 68.39 ± 0.35%; inhibition at 500 µg/mL [3]: 73.42 ± 0.12%; inhibition at 1000 µg/mL [3]: 77.73 ± 0.03%; IC50 [5]: 234 µM; inhibition at 62.5 µg/mL [5]: 50.35 ± 0.11%; inhibition at 125 µg/mL [5]: 54.02 ± 0.24%; inhibition at 250 µg/mL [5]: 57.34 ± 0.35%; inhibition at 500 µg/mL [5]: 62.29 ± 0.32%; inhibition at 1000 µg/mL [5]: 65.39 ± 0.4%
